PubChem BioAssay AID192 (DTP/NCI, 2004)
“And” between values parts separate entries of the source, which are not always exact repeats. Equal entries are not always repeated. Inconclusive results and toxic doses are left out.

System: BDF1 mice, B16 melanoma ip, median survival T/C
Test: NCI In Vivo Anticancer Drug Screen. Data for tumor model B16 Melanoma (intraperitoneal) in B6D2F1 (BDF1) mice
Conditions: endpoint: median survival time, higher = longer survival
Procedure, shortened: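 In this screen, activity was judged from survival or tumor size in treated versus vehicle-treated tumor-bearing mice, reported as T/C.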

[1] = dose: 3.12 mg/kg/injection, schedule: Q01DX009 (ip), vehicle: saline
[2] = dose: 6.25 mg/kg/injection, schedule: Q01DX009 (ip), vehicle: saline
[3] = dose: 12.5 mg/kg/injection, schedule: Q01DX009 (ip), vehicle: saline
[4] = dose: 25.0 mg/kg/injection, schedule: Q01DX009 (ip), vehicle: saline with Tween-80
[5] = dose: 100.0 mg/kg/injection, schedule: Q01DX009 (ip), vehicle: Klucel (hydroxypropylcellulose) (HPC)
[6] = dose: 200.0 mg/kg/injection, schedule: Q01DX009 (ip), vehicle: Klucel (hydroxypropylcellulose) (HPC)

CN(C)C1CC1c1ccccc1 (stereo unspecified)
T/C [1]: 92 % of control
T/C [2]: 107 % of control
T/C [3]: 97 % of control
T/C (dose: 25.0 mg/kg/injection, schedule: Q01DX009 (ip), vehicle: saline): 100 % of control
T/C (dose: 50.0 mg/kg/injection, schedule: Q01DX009 (ip), vehicle: saline): 105 % of control
T/C (dose: 100.0 mg/kg/injection, schedule: Q01DX009 (ip), vehicle: saline): 98 % of control

CCC/C(C)=N/Nc1ccccn1
T/C (dose: 12.5 mg/kg/injection, schedule: Q01DX009 (ip), vehicle: saline sonified): 97 % of control
T/C (dose: 25.0 mg/kg/injection, schedule: Q01DX009 (ip), vehicle: saline sonified): 95 % of control
T/C (dose: 50.0 mg/kg/injection, schedule: Q01DX009 (ip), vehicle: saline sonified): 97 % of control
T/C (dose: 100.0 mg/kg/injection, schedule: Q01DX009 (ip), vehicle: saline sonified): 100 % of control

CN1CCCCC1CCN1c2ccccc2Sc2ccc(Br)cc21 (stereo unspecified)
T/C (dose: 0.78 mg/kg/injection, schedule: Q01DX009 (ip), vehicle: saline): 109 % of control
T/C [1]: 105 % of control
T/C [2]: 107 % of control
T/C [3]: 96 % of control

CCC12C=CCN3CCC4(c5cc(C6c7[nH]c8ccccc8c7CCN7CCCCC67)c(OC)cc5N(C)C4C(O)(C(=O)OC)C1OC(C)=O)C32 (stereo unspecified)
T/C (dose: 0.06 mg/kg/injection, schedule: Q01DX009 (ip), vehicle: other): 98 % of control
T/C (dose: 0.13 mg/kg/injection, schedule: Q01DX009 (ip), vehicle: other): 96 % of control
T/C (dose: 0.25 mg/kg/injection, schedule: Q01DX009 (ip), vehicle: other): 96 % of control
T/C (dose: 0.5 mg/kg/injection, schedule: Q01DX009 (ip), vehicle: other): 108 % of control
T/C (dose: 1.0 mg/kg/injection, schedule: Q01DX009 (ip), vehicle: other): 108 % of control
T/C (dose: 2.0 mg/kg/injection, schedule: Q01DX009 (ip), vehicle: other): 108 % of control

Clc1ccc(CN2COc3c(ccc4cccnc34)C2)cc1Cl
T/C [4]: 106 % of control
T/C (dose: 50.0 mg/kg/injection, schedule: Q01DX009 (ip), vehicle: saline with Tween-80): 108 % of control
T/C (dose: 100.0 mg/kg/injection, schedule: Q01DX009 (ip), vehicle: saline with Tween-80): 107 % of control

CCOc1ccc(NC(=O)c2ccccc2Cl)cc1
T/C [5]: 93 % of control
T/C [6]: 112 % of control
T/C (dose: 400.0 mg/kg/injection, schedule: Q01DX009 (ip), vehicle: Klucel (hydroxypropylcellulose) (HPC)): 93 % of control

O=S(O)OS(=O)O
T/C (dose: 50.0 mg/kg/injection, schedule: Q04DX003 (ip), vehicle: saline): 101 % of control
T/C (dose: 100.0 mg/kg/injection, schedule: Q04DX003 (ip), vehicle: saline): 101 % of control
T/C (dose: 200.0 mg/kg/injection, schedule: Q04DX003 (ip), vehicle: saline): 94 % of control

CCCCCCC(=O)O[C@H]1CC[C@H]2[C@@H]3CCC4=CC(=O)CC[C@]4(C)[C@H]3CC[C@]12C
T/C (dose: 10.0 mg/kg/injection, schedule: Q01DX009 (ip), vehicle: Klucel (hydroxypropylcellulose) (HPC)): 96 % of control
T/C (dose: 20.0 mg/kg/injection, schedule: Q01DX009 (ip), vehicle: Klucel (hydroxypropylcellulose) (HPC)): 110 % of control
T/C (dose: 40.0 mg/kg/injection, schedule: Q01DX009 (ip), vehicle: Klucel (hydroxypropylcellulose) (HPC)): 89 % of control
T/C (dose: 80.0 mg/kg/injection, schedule: Q01DX009 (ip), vehicle: Klucel (hydroxypropylcellulose) (HPC)): 103 % of control

COC(=O)N1CC=CCN1C(=O)OC
T/C (dose: 100.0 mg/kg/injection, schedule: Q04DX003 (ip), vehicle: saline with Tween-80): 102 % of control
T/C (dose: 200.0 mg/kg/injection, schedule: Q04DX003 (ip), vehicle: saline with Tween-80): 102 % of control
T/C (dose: 400.0 mg/kg/injection, schedule: Q04DX003 (ip), vehicle: saline with Tween-80): 94 % of control

CC[C@H]1CN2CCc3cc(OC)c(OC)cc3[C@@H]2C[C@@H]1C[C@H]1NCCc2cc(OC)c(OC)cc21
T/C (dose: 0.87 mg/kg/injection, schedule: Q01DX009 (ip), vehicle: saline): 103 % of control and 104 % of control
T/C (dose: 1.75 mg/kg/injection, schedule: Q01DX009 (ip), vehicle: saline): 100 % of control and 103 % of control
T/C (dose: 3.5 mg/kg/injection, schedule: Q01DX009 (ip), vehicle: saline): 105 % of control and 111 % of control
T/C (dose: 7.0 mg/kg/injection, schedule: Q01DX009 (ip), vehicle: saline): 116 % of control
T/C (dose: 7.8 mg/kg/injection, schedule: Q04DX003 (ip), vehicle: saline): 108 % of control
T/C (dose: 11.2 mg/kg/injection, schedule: Q04DX003 (ip), vehicle: saline): 98 % of control
T/C (dose: 16.0 mg/kg/injection, schedule: Q04DX003 (ip), vehicle: saline): 107 % of control
T/C (dose: 22.9 mg/kg/injection, schedule: Q04DX003 (ip), vehicle: saline): 104 % of control

CCC1=C[C@H]2CN(CCc3c([nH]c4ccccc34)[C@@](C(=O)OC)(c3cc4c(cc3OC)N(C)[C@H]3[C@@](O)(C(=O)OC)[C@H](OC(C)=O)[C@]5(CC)C=CCN6CC[C@]43[C@@H]65)C2)C1
T/C (dose: 0.05 mg/kg/injection, schedule: Q01DX009 (ip), vehicle: saline): 116 % of control
T/C (dose: 0.06 mg/kg/injection, schedule: Q01DX009 (ip), vehicle: water): 100 % of control and 107 % of control
T/C (dose: 0.1 mg/kg/injection, schedule: Q01DX009 (ip), vehicle: saline): 116 % of control
T/C (dose: 0.13 mg/kg/injection, schedule: Q01DX009 (ip), vehicle: water): 103 % of control and 120 % of control
T/C (dose: 0.25 mg/kg/injection, schedule: Q01DX009 (ip), vehicle: water): 108 % of control
T/C (dose: 0.8 mg/kg/injection, schedule: Q01DX009 (ip), vehicle: saline): 181 % of control
T/C (dose: 1.6 mg/kg/injection, schedule: Q01DX009 (ip), vehicle: saline): 208 % of control
T/C (dose: 4.0 mg/kg/injection, schedule: Q04DX003 (ip), vehicle: water): 175 % of control

Cc1ccc(NC(=O)Nc2ccccc2C)c(C)c1
T/C (dose: 50.0 mg/kg/injection, schedule: Q01DX009 (ip), vehicle: Klucel (hydroxypropylcellulose) (HPC)): 115 % of control
T/C [5]: 115 % of control
T/C [6]: 118 % of control

C=C(C)CNC1=C(C)C(=O)C2=C(C1=O)[C@H](COC(N)=O)[C@]1(OC)[C@@H]3N[C@@H]3CN21
T/C (dose: 0.13 mg/kg/injection, schedule: Q01DX001 (ip), vehicle: distilled water + Tween-80): 100 % of control
T/C (dose: 0.25 mg/kg/injection, schedule: Q01DX001 (ip), vehicle: distilled water + Tween-80): 114 % of control
T/C (dose: 1.5 mg/kg/injection, schedule: Q04DX003 (ip), vehicle: distilled water + Tween-80): 123 % of control
T/C (dose: 2.0 mg/kg/injection, schedule: Q01DX001 (ip), vehicle: distilled water + Tween-80): 153 % of control
T/C (dose: 3.0 mg/kg/injection, schedule: Q04DX003 (ip), vehicle: distilled water + Tween-80): 157 % of control
T/C (dose: 4.0 mg/kg/injection, schedule: Q01DX001 (ip), vehicle: distilled water + Tween-80): 167 % of control
T/C (dose: 6.0 mg/kg/injection, schedule: Q04DX003 (ip), vehicle: distilled water + Tween-80): 215 % of control
T/C (dose: 12.0 mg/kg/injection, schedule: Q04DX003 (ip), vehicle: distilled water + Tween-80): 285 % of control

O=c1cnn(C2OC(CO)C(O)C2O)c(=O)[nH]1 (stereo unspecified)
T/C (dose: 75.0 mg/kg/injection, schedule: Q01DX009 (ip), vehicle: Klucel (hydroxypropylcellulose) (HPC)): 99 % of control and 100 % of control
T/C (dose: 125.0 mg/kg/injection, schedule: Q03HX024 (ip), vehicle: water): 116 % of control
T/C (dose: 125.0 mg/kg/injection, schedule: Q03HX032 (ip), vehicle: water): 119 % of control
T/C (dose: 150.0 mg/kg/injection, schedule: Q01DX009 (ip), vehicle: Klucel (hydroxypropylcellulose) (HPC)): 92 % of control and 101 % of control
T/C (dose: 250.0 mg/kg/injection, schedule: Q03HX024 (ip), vehicle: water): 124 % of control
T/C (dose: 300.0 mg/kg/injection, schedule: Q01DX009 (ip), vehicle: Klucel (hydroxypropylcellulose) (HPC)): 100 % of control and 102 % of control
T/C (dose: 600.0 mg/kg/injection, schedule: Q01DX009 (ip), vehicle: Klucel (hydroxypropylcellulose) (HPC)): 101 % of control and 102 % of control
T/C (dose: 1200.0 mg/kg/injection, schedule: Q01DX009 (ip), vehicle: Klucel (hydroxypropylcellulose) (HPC)): 99 % of control

Cn1c(=O)c2[nH]c(Cc3ccc4c(c3)OCO4)nc2n(C)c1=O
T/C (dose: 0.25 mg/kg/injection, schedule: Q01DX009 (ip), vehicle: Klucel (hydroxypropylcellulose) (HPC)): 96 % of control
T/C (dose: 0.5 mg/kg/injection, schedule: Q01DX009 (ip), vehicle: Klucel (hydroxypropylcellulose) (HPC)): 94 % of control
T/C (dose: 1.0 mg/kg/injection, schedule: Q01DX009 (ip), vehicle: Klucel (hydroxypropylcellulose) (HPC)): 96 % of control
T/C (dose: 2.0 mg/kg/injection, schedule: Q01DX009 (ip), vehicle: Klucel (hydroxypropylcellulose) (HPC)): 93 % of control

CCOC1CCC2C(CCC(/C=C/c3ccc(O)c4ncccc34)N2C)C1 (stereo unspecified)
T/C [4]: 111 % of control
